Blank lines part the entries; values can stand above or below the compound they belong to.
Test: photoluminescence quantum yield (fraction); solvent given as SMILES
[1] = in O=P(c1ccccc1)(c1ccccc1)c1ccccc1Oc1ccccc1P(=O)(c1ccccc1)c1ccccc1

Compound: CC1=CC(C)=[N+]2C1=C(c1ccc(N3CCCCC3)cc1)c1c(C)cc(C)n1[B-]2(F)F
photoluminescence quantum yield (in C1CCOC1): 0.008
photoluminescence quantum yield (in CC#N): 0.005
photoluminescence quantum yield (in CC(=O)C(C)(C)C): 0.024
photoluminescence quantum yield (in CC(C)=O): 0.002
photoluminescence quantum yield (in CCCCCC): 0.384
photoluminescence quantum yield (in CCOC(C)=O): 0.006

Compound: N#Cc1cccc(C#N)c1-n1c2ccccc2c2cc(-c3ccc4c(c3)c3ccccc3n4-c3c(C#N)cccc3C#N)ccc21
photoluminescence quantum yield (in Cc1ccccc1): 0.72
photoluminescence quantum yield [1]: 0.72

Compound: c1ccc2cc3cc4c(cc3cc2c1)-c1cccc2cccc-4c12
photoluminescence quantum yield (in CCCCCCC): 0.58

Compound: CC(C)(C)c1ccc2c(c1)c1cc(C(C)(C)C)ccc1n2-c1ccccc1-c1nc(-c2ccccc2P(=O)(c2ccccc2)c2ccccc2)nc(-c2ccccc2P(=O)(c2ccccc2)c2ccccc2)n1
photoluminescence quantum yield [1]: 0.38

Compound: CCOC(=O)C1=C(C)NC2=C(C(=O)c3ccccc32)C1c1ccc(N(C)C)cc1 (configuration not stated)
photoluminescence quantum yield (in C1CCOC1): 0.34
photoluminescence quantum yield (in C1COCCO1): 0.43
photoluminescence quantum yield (in CC#N): 0.3
photoluminescence quantum yield (in CCO): 0.092
photoluminescence quantum yield (in CN(C)C=O): 0.33
photoluminescence quantum yield (in CO): 0.035
photoluminescence quantum yield (in CS(C)=O): 0.29
photoluminescence quantum yield (in ClC(Cl)(Cl)Cl): 0.16
photoluminescence quantum yield (in ClC(Cl)Cl): 0.44
photoluminescence quantum yield (in ClCCl): 0.4

Compound: CCCCCCCCC1(CCCCCCCC)c2cc(-c3ccc([N+](=O)[O-])cc3)ccc2-c2ccc(-c3ccc([N+](=O)[O-])cc3)cc21
photoluminescence quantum yield (in C1CCCCC1): 0
photoluminescence quantum yield (in CCO): 0
photoluminescence quantum yield (in CN(C)C=O): 0.31
photoluminescence quantum yield (in CS(C)=O): 0.28
photoluminescence quantum yield (in Cc1ccccc1): 0
photoluminescence quantum yield (in ClC(Cl)Cl): 0.11

Compound: COc1ccc(/C=C/C=C/C2=NC3C(=O)NC(N)=NC3N2[C@H]2C[C@H](O)[C@@H](CO)O2)cc1 (some centres not stated)
photoluminescence quantum yield (in C1COCCO1): 0.71
photoluminescence quantum yield (in CC#N): 0.68
photoluminescence quantum yield (in CO): 0.56

Compound: CC(C)(C)NS(=O)(=O)c1ccc2c(c1)C(=O)/C(=C1\Sc3ccc(S(=O)(=O)NC(C)(C)C)cc3C1=O)S2
photoluminescence quantum yield (in C1COCCO1): 0.611
photoluminescence quantum yield (in CN(C)C=O): 0.352
photoluminescence quantum yield (in CS(C)=O): 0.009

Compound: CC(C)[Si](C#Cc1c2ccccc2c(C#C[Si](C(C)C)(C(C)C)C(C)C)c2nc3c4ccccc4c(=O)c4ccccc4c3nc12)(C(C)C)C(C)C
photoluminescence quantum yield (in ClCCl): 0.75

Compound: CCC1=C(C)C(=O)n2c1cc1c(C)c(CC(=O)OC)c(C)n1c2=O
photoluminescence quantum yield (in CO): 0.94
photoluminescence quantum yield (in CS(C)=O): 1
photoluminescence quantum yield (in ClC(Cl)Cl): 1
photoluminescence quantum yield (in c1ccccc1): 1

Compound: CC1(C)C(/C=C/C=C/c2cc3ccc(O)cc3oc2=O)=[N+](CCCS(=O)(=O)[O-])c2ccc(S(=O)(=O)O)cc21
photoluminescence quantum yield (in CCO): 0.01
photoluminescence quantum yield (in CS(C)=O): 0.017
photoluminescence quantum yield (in O): 0.011

Compound: N#CC(C#N)=Cc1ccc2nc(C#Cc3ccc(N(c4ccc(C#Cc5nc6ccc(C=C(C#N)C#N)cc6s5)cc4)c4ccc(C#Cc5nc6ccc(C=C(C#N)C#N)cc6s5)cc4)cc3)sc2c1
photoluminescence quantum yield (in Cc1ccccc1): 0.61

Further lines, results first:

photoluminescence quantum yield (in C1COCCO1): 0.14
photoluminescence quantum yield (in CC#N): 0.01
photoluminescence quantum yield (in ClCCl): 0.17
Compound: CN(C)c1ccc(/C=C/c2nc3cc(Br)ccc3nc2-c2ccccc2)cc1

photoluminescence quantum yield (in C1CCCCC1): 0.023
photoluminescence quantum yield (in CC#N): 0.067
photoluminescence quantum yield (in CO): 0.026
photoluminescence quantum yield (in ClC(Cl)Cl): 0.057
Compound: CN(C)c1ccc2nc(-c3ccc(/C=N/Nc4ccccc4)cc3)sc2c1

photoluminescence quantum yield (in CCCCCCC): 0.52
Compound: c1ccc2cc3c(cc2c1)-c1cccc2cc4ccccc4c-3c12

photoluminescence quantum yield (in ClCCl): 0.43
Compound: Cc1ccc(C2=C(c3ccc(C)cc3)c3cccc4c3c(cc3nc5ccccc5nc34)O2)cc1

photoluminescence quantum yield (in O): 0.3
Compound: Fc1cc(F)c2cc3cccc[n+]3cc2c1

photoluminescence quantum yield (in ClCCl): 0.59
Compound: COc1ccc(-c2c3ccccc3c(-c3ccc(OC)cc3)c3ccccc23)cc1

photoluminescence quantum yield (in CC#N): 0.168
Compound: N#C/C(=C\c1ccncc1)c1nc(-c2ccc(Cl)cc2)cs1

photoluminescence quantum yield (in ClCCl): 0.392
Compound: c1ccc(N(c2ccccc2)c2ccc(-c3ccc(-c4nc(-c5ccccn5)n(-c5ccccc5)n4)cc3)cc2)cc1

photoluminescence quantum yield (in CCO): 0.0846
photoluminescence quantum yield (in ClCCl): 0.111
photoluminescence quantum yield (in O): 0.01
Compound: O=Cc1ccc(-c2cccc(-c3nc4ccccc4s3)c2O)o1
